Measured values from PubChem BioAssay (NCI).
“And” between values parts separate entries of the source, which are not always exact repeats. Equal values may be shown once.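 Step 1: Grow cells in 96-well plates. Step 2: Expose to compound for 48 hours at 5 concentrations. Step 3: Interpolate endpoints linearly; if unreached, use highest concentration. GI50 = concentration required for 50% inhibition of growth. TGI marks complete inhibition of growth.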

Experiments:
Assay in all cases: NCI anticancer screen, dose series, 48 h
[1] = test system: CAKI-1 renal
[2] = test system: EKVX NSCLC
[3] = test system: HOP-92 NSCLC
[4] = test system: IGROV1 ovarian
[5] = test system: M14 melanoma
[6] = test system: MDA-MB-231 breast
[7] = test system: NCI-H460 lung
[8] = test system: OVCAR-3 ovarian
[9] = test system: U251 CNS
[10] = test system: UACC-62 melanoma

SMILES	GI50 [1]	TGI [1] [µM]	GI50 [2]	TGI [2]	GI50 [3] [µM]	TGI [3]	GI50 [4]	TGI [4]	GI50 [5] [µM]	TGI [5]	GI50 [6]	TGI [6]	GI50 [7]	TGI [7]	GI50 [8]	TGI [8]	GI50 [9]	TGI [9]	GI50 [10]	TGI [10]
Nc1n[nH]c2ccc([C@@H]3Nc4c(F)cc5[nH]ncc5c4[C@H]4C5CCC(C5)[C@@H]34)cc12 (stereo partly specified)	0.329 µM	> 47.5	0.632 µM	> 71.5 µM	1.48	> 29.3 µM	0.391 µM	> 46.2 µM	0.206	> 32.8 µM	0.732 µM	> 47 µM	0.352 µM	> 31.9 µM	0.216 µM	0.735 µM	0.376 µM	17.3 µM	0.242 µM	> 44.9 µM
Cc1ccc(NC(=O)c2ccc(NC3=C(Cl)C(=O)N(Cc4ccccc4)C3=O)cc2)cc1Cl	1.68 µM	3.81	26.4 µM	> 100 µM	1.65	11.6 µM	0.49 µM	2.64 µM	17.6	55.1 µM	1.35 µM	11.9 µM	10.3 µM	27 µM	3.6 µM	18.7 µM	3.97 µM	17.8 µM	15.5 µM	59.9 µM
Cn1c(CC(O)c2nc3ccccc3n2C)nc2ccccc21 (stereo unspecified)		> 100		> 100 µM		> 38.7 µM		> 40.6 µM		> 49.8 µM		> 53.7 µM		> 46.9 µM		> 19.4 µM		> 48.8 µM		> 61.5 µM
Cc1cn2c(/C=C3/C(=O)Nc4ccc(C(=O)O)cc43)c(C)nc2s1	> 100 µM	> 100	> 100 µM	> 100 µM	> 100	> 100 µM	> 100 µM	> 100 µM	> 100	> 100 µM	> 100 µM	> 100 µM	> 100 µM	> 100 µM	> 100 µM	> 100 µM	> 100 µM	> 100 µM	> 100 µM	> 100 µM
CCc1ccc(C2=NN(c3ccc(S(C)(=O)=O)cc3)C(=O)CC2)cc1	1.65 µM	> 28.7	4.15 µM	98.4 µM	1.86	23.7 µM	2.71 µM	> 74.3 µM	0.639	> 100 µM	3.32 µM	> 60.2 µM	1.28 µM	13.1 µM	0.385 µM	2.36 µM	1.83 µM	> 100 µM	0.603 µM	> 100 µM
Cc1ccc(O)cc1Nc1ccnc2cc(-c3ccccn3)ccc12	1.05 µM	4.36	3.61 µM	17.3 µM	0.292	3.02 µM	0.502 µM	2.13 µM	3.24	7.51 µM	1.25 µM	5.6 µM	3.65 µM	7.4 µM	2.14 µM	6.36 µM	3.29 µM	6.65 µM	3.45 µM	7.34 µM
CN(c1ccc(NC(=O)NCCN2CCOCC2)cc1)c1ccnc(Nc2ccc(CS(C)(=O)=O)cc2)n1	> 25 µM	> 25	> 25 µM	> 25 µM	19.2	> 25 µM	> 25 µM	> 25 µM	> 25	> 25 µM	> 25 µM	> 25 µM	> 25 µM	> 25 µM	> 25 µM	> 25 µM	> 25 µM	> 25 µM	> 25 µM	> 25 µM
O=S(=O)(NCCCNc1nccc(-c2c(-c3cccc(F)c3)nc3occn23)n1)c1cccc2ccccc12	3.57 µM	> 100	6.04 µM	> 100 µM	> 100	> 100 µM	3.33 µM	> 100 µM	5.75	> 100 µM	3.13 µM	> 100 µM	4.79 µM	> 100 µM	13.5 µM	> 100 µM	8.89 µM	> 100 µM	4.28 µM	> 100 µM
COc1ncc2cc1NS(=O)(=O)c1cccc(c1)C(=O)NCC1=CC=C(S1)c1ncnc3c1SC2=C3C	0.0795 µM	10.3	0.234 µM	2.54 µM	0.0526	0.667 µM	0.0715 µM	1.6 µM	0.0992	1.89 µM	0.139 µM	12.8 µM	0.37 µM	2.55 µM	0.115 µM	0.431 µM	0.17 µM	2.03 µM	0.248 µM	1.24 µM
N#Cc1cccc(C2C3=C(COC3=O)N(CCO)c3cc4c(cc32)CCC4)c1 (stereo unspecified)	0.109 µM	> 50	0.259 µM	> 50 µM	0.871	35.3 µM	0.172 µM	> 43.8 µM	0.0832	0.293 µM	0.22 µM		0.16 µM	5.19 µM	0.123 µM		0.196 µM	> 50 µM	0.028 µM	> 50 µM
Oc1c(I)cc(Cl)c2cccnc12	2.38 µM and 21.4 µM		2.89 µM and 25.4 µM	18 µM and 57.9 µM		17.9 µM and 50.3 µM	3.91 µM and 13 µM	24.2 µM and 36.5 µM	2.08	4.37 µM	3.54 µM and 2.7 µM	35.2 µM and 12.8 µM	3 µM and 5.84 µM	> 100 µM and 85.1 µM	5.62 µM and 21.3 µM	65.1 µM and 61.5 µM	3.9 µM and 3.65 µM	> 100 µM and 32.8 µM	1.81 µM and 2.06 µM	4.56 µM and 5.09 µM
O=[N+]([O-])c1ccc(/C=C\c2ccc3c(c2)OCO3)c([N+](=O)[O-])c1		92		28.1 µM		53.5 µM		24.7 µM		31.1 µM		33.2 µM		54.5 µM		43.1 µM		28.9 µM		43.2 µM
Cc1ccc(NC2=CC(=O)C(=O)c3ccccc32)c(C)c1	2 µM	7.95	10.3 µM	24.3 µM	13.3	42.3 µM	1.88 µM	6.68 µM	1.78	3.26 µM	3.03 µM	19.4 µM	2.57 µM	7.68 µM	1.49 µM	4.47 µM	3.07 µM	11.9 µM	1.78 µM	3.72 µM
CN(C)c1ccc2c(c1)OC(N)=C(C#N)C2c1ccc2c(c1)CCCN2C (stereo unspecified)	3.33 µM	> 100	3.79 µM	> 100 µM	2.82	57 µM	4.03 µM	> 100 µM	1.29	18.5 µM	3.52 µM	> 100 µM	1.92 µM	24.9 µM	0.691 µM	10.3 µM	2.6 µM	21.9 µM	1.55 µM	33.9 µM
C=CC(C)(O)CCC1C(=C)C(O)CC2C(C)(C)CCCC12C (stereo unspecified)		68.2		36.8 µM		34 µM		52.2 µM		30 µM		31.8 µM		33.5 µM		39.9 µM		28.8 µM		29.8 µM
CC1=NN(c2nc(N)nc(/C=C\c3ccccc3)n2)C(C)(C)C1	15.4 µM	30.9	12.5 µM	45.8 µM	19.5	39.5 µM	8.99 µM	24 µM	9.76	23.7 µM	6.46 µM	22.5 µM	13.1 µM	34.2 µM	3.73 µM	16.1 µM	3.19 µM	28.9 µM	3.88 µM	16.4 µM
CCc1c(C#N)c(SC(C(N)=O)c2ccccc2)nc(N2CCC(N)CC2)c1C#N (stereo unspecified)	14.7 µM	28.6	15.5 µM	36.9 µM	4.56	19.2 µM	14 µM	27.9 µM	16.2	30.6 µM	14.7 µM	28 µM	16.1 µM	30.7 µM	14.5 µM	28.2 µM	15.7 µM	30.5 µM	15 µM	28.4 µM
O=C1c2ccccc2-c2c1c1ccc([N+](=O)[O-])cc1c(=O)n2CCCCl	2.45 µM	> 100	> 100 µM	> 100 µM	22.9	> 100 µM	> 100 µM	> 100 µM	47	> 100 µM	11.3 µM	57.7 µM	2.61 µM	67.5 µM	4.91 µM	77 µM	3.08 µM	> 100 µM	20.3 µM	> 100 µM
N=C(N)c1ccc(OCCCCCOc2ccc(C(=N)N)cc2)cc1	10.3 µM	> 100	8.89 µM	> 50 µM and 45.5 µM and 72.6 µM	1.89	21.5 µM and > 100 µM	10.2 µM and 13 µM and 35.5 µM	> 50 µM and 27 µM and > 100 µM	5.63	17.2 µM and 31.8 µM and 31.9 µM	8.69 µM	> 50 µM and 44.4 µM	1.68 µM	9 µM and 17.4 µM and 18.3 µM	5.25 µM	15.4 µM and 34.9 µM and 37 µM	2.79 µM	13.2 µM and 22.5 µM and 34.5 µM	2.02 µM	9.38 µM and 23.6 µM and 29.6 µM
